The test system of assay [1] is mice with paclitaxel-induced mechanical allodynia. Description: Paclitaxel-induced neuropathic pain (CINP) model, mechanical allodynia. To be noted: male WT mice, vs PBS. The assay is classed as in vivo, mouse. From the text:
FIGS. 9A and 9B are graphs showing that NR4A1 deficiency exacerbates chemotherapy-induced neuropathic pain and neuroinflammation in DRG tissue.
FIGS. 10A and 10B are graphs showing that NA4A1 activation by Cytosporone B (Csn-B) prevents and reverses chemotherapy induced neuropathic pain. […]

In assay [2] the test system is mice after plantar incision (postoperative pain). The experiment in a line: Plantar incision model of postoperative pain (von Frey filaments, Hargreaves test). As to conditions: vs vehicle; for resolution of postoperative pain (mechanical and thermal hypersensitivity): von Frey filaments and Hargreaves test. It counts as in vivo, mouse. As for the experimental part: (§1) To investigate the underlying mechanisms of postoperative pain, we adopted a mouse model that is characterized by increased pain sensitivity and macrophage infiltration after a surgical incision made in the plantar aspect of the hind paw. Pain sensitivity and macrophage infiltration were evaluated in NA4A1 knockout (KO) mice. Expression and function of NR4A1 were also evaluated in neuronal and skin tissues, as well as in cultured macrophages.
We used a well-characterized animal model of postoperative pain consisting in plantar incision (FIG. 1). Specifically, FIGS. 1A-1C show an animal model of post-operative pain. FIG. 1A illustrates the experimental design depicting the plantar incision and timeline for the behavioral tests. FIG. 1B is a graph showing how, after plantar incision, mice develop mechanical hypersensitivity (assessed by von Frey filaments) and FIG. 1C is a graph showing thermal hypersensitivity (assessed by Hargreaves test). […]
Cutaneous application of an NA4A1 agonist accelerates the resolution of post-operative pain. […] FIG. 4B is a graph showing mechanical hypersensitivity as assessed by von Frey filaments before injection of the drug (prevention). FIG. 4C is a graph showing mechanical hypersensitivity as assessed by von Frey filaments after drug injection (acute analgesia). FIG. 4D is a graph showing thermal hypersensitivity as assessed by Hargreaves test before injection of the drug (prevention). FIG. 4E is a graph showing thermal hypersensitivity as assessed by Hargreaves test after drug injection (acute analgesia). […]
FIG. 5B is a graph showing mechanical hypersensitivity as assessed by von Frey filaments before injection of the drug (prevention), and FIG. 5C is a graph showing mechanical hypersensitivity as assessed by von Frey filaments after drug injection (acute analgesia). FIG. 5D is a graph showing thermal hypersensitivity as assessed by Hargreaves test before injection of the drug (prevention). FIG. 5D is a graph showing thermal hypersensitivity as assessed by Hargreaves test after drug injection (acute analgesia). […]

Assay [3] has as its system NR4A1 knockout male mice after plantar incision. The experiment in a line: Plantar incision model of postoperative pain in NR4A1 knockout mice (von Frey filaments, Hargreaves test). The assay is classed as in vivo, mouse. As to conditions: local intraplantar injection, vs vehicle. As for the experimental part: as §1
We used a well-characterized animal model of postoperative pain consisting in plantar incision (FIG. 1). Specifically, FIGS. 1A-1C show an animal model of post-operative pain. FIG. 1A illustrates the experimental design depicting the plantar incision and timeline for the behavioral tests. FIG. 1B is a graph showing how, after plantar incision, mice develop mechanical hypersensitivity (assessed by von Frey filaments) and FIG. 1C is a graph showing thermal hypersensitivity (assessed by Hargreaves test). These hypersensitivities are indicative of postoperative pain and resolve in 7 days. n=6 male mice per group, One-way ANOVA, *p<0.05 (Bonferroni).
FIG. 6A is a graph showing mechanical hypersensitivity as assessed by von Frey filaments, and FIG. 6B is a graph showing thermal hypersensitivity as assessed by Hargreaves test. […]

In assay [4] the test system is Peritoneal macrophages. The experiment in a line: Expression of pro-inflammatory mediators in cultured peritoneal macrophages activated with LPS. The assay is classed as cell-based, mouse. As to conditions: Cyto B 10 μg/ml, LPS 20 ng/ml. The protocol:
Peritoneal macrophages were cultured and incubated with vehicle control, cytosporone B (Cyto B, 10 μg/ml) or/and the macrophage activator lipopolysaccharide (LPS, 20 ng/ml). n=4-8 cultures per group, One-way ANOVA, *p<0.05 (Vehicle vs. LPS, Bonferroni), #p<0.05 (LPS VS. LPS+Cyto B, Bonferroni).

SMILES strings stand for the structures.

The text below walks through data of US12611393B2, “Treatment of pain by targeting NR4A1” (UNIVERSITY OF CINCINNATI, priority 2019, dated 2026).

Consider `CCCCCCCC(=O)c1c(O)cc(O)cc1CC(=O)OCC` [Cytosporone B], for which, in assay [1] (paclitaxel 2 mg/kg every other day x4, Csn-B intrathecal (i.t.) given with paclitaxel), the “prevention of mechanical allodynia (chemotherapy induced neuropathic pain)” value is on record as “significantly prevent”. Moreover, the “reversal of mechanical allodynia (chemotherapy induced neuropathic pain)” value in assay [1] (treatment 14 d after first paclitaxel delivery, different doses of Csn-B) is on record as “reverse”. The “resolution of postoperative pain (mechanical and thermal hypersensitivity)” value was “accelerates the resolution of postoperative pain” in assay [2] (female mice, local intraplantar injection); “accelerates the resolution of postoperative pain” in assay [2] (male mice, local intraplantar injection (i.pl.)); “fails to resolve postoperative pain” in assay [3]. In addition, in assay [2] (male mice, systemic intraperitoneal injection), the “effect on postoperative pain (mechanical and thermal hypersensitivity)” value is listed as “limited effects on postoperative pain”. Besides, in assay [4], the “expression of pro-inflammatory mediators in macrophages” value was “decreases the expression of pro-inflammatory mediators”.
